Laboratory results published in US20100280070A1, “NOVEL TETRAHYDROQUINOLINES AS AROMATASE INHIBITORS” (priority 2008, published 2010).

target: T1, aromatase (Homo sapiens, UniProt P11511); test: not given; details: mammary fibroblast cultures; Aminoglutethimide = 1; cited from earlier work
T1 sequence (P11511 1-503): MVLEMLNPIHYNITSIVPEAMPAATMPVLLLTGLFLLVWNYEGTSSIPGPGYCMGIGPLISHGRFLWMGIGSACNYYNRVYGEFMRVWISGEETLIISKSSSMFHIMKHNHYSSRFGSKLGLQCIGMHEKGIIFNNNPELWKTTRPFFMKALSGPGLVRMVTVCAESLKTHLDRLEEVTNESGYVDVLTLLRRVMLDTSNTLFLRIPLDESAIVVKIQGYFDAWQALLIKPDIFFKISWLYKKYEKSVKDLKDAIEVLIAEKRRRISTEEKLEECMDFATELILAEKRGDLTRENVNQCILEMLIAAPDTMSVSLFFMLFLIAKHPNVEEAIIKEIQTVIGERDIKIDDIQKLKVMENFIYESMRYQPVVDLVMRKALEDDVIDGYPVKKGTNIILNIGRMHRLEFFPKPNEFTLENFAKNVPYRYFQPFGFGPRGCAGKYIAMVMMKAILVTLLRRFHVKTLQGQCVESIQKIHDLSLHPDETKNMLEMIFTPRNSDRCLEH

In the case of `CC(C)(C#N)c1cc(Cn2cncn2)cc(C(C)(C)C#N)c1` [Anasatrozole], the “RP, mammary fibroblast cultures” value is listed as 570.

For `N#Cc1ccc(C(c2ccc(C#N)cc2)n2cncn2)cc1` [Letrozole], the “RP, mammary fibroblast cultures” value is given as 10,000.

same assay, conditions: read-out: IC50, mammary fibroblast cultures; cited from earlier work

For `C[C@]12CCC(=O)C(O)=C1CC[C@@H]1[C@@H]2CC[C@]2(C)C(=O)CC[C@@H]12` [Formestane], the IC50 is listed as 45 nM.

target: T1, aromatase; test: not given; details: read-out: IC50 from human placental microsomal assay; cited from earlier work

For `C[C@]12CCC(=O)C(O)=C1CC[C@@H]1[C@@H]2CC[C@]2(C)C(=O)CC[C@@H]12` [Formestane], the IC50 is given as 50 nM.

target: T1, aromatase; test: Aromatase inhibition assay in human placental microsomes; format: biochemical; design: Microsomal protein (1 mg, from human placental tissue); from tissue; host or cells: human placenta, microsomal fraction; details: inhibitor 500 nM; human placental microsomal protein; [1β-3H]androstenedione 15 nM; 15 min at 30° C.

First: c1ccc(C2CC(n3ccnc3)c3ccccc3N2)cc1 (stereo not shown) [Compound 6a, 2-Phenyl-4-imidazol-1-yl-1,2,3,4-tetrahydro-quinoline]
Second: Cc1ccc(C2CC(n3ccnc3)c3ccccc3N2)cc1 (stereo not shown) [Compound 6b, 2-(p-Tolyl)-4-imidazol-1-yl-1,2,3,4-tetrahydro-quinoline]
The inhibition at 0.5 µM of the first is lower: 61.8% for the first, 67.4% for the second.

First: COc1ccc(C2CC(n3ccnc3)c3ccccc3N2)cc1 (stereo not shown) [Compound 6c, 2-(4-Methoxyphenyl)-4-imidazol-1-yl-1,2,3,4-tetrahydro-quinoline]
Second: Clc1ccc(C2CC(n3ccnc3)c3ccccc3N2)cc1 (stereo not shown) [Compound 6d, 2-(4-Chlorophenyl)-4-imidazol-1-yl-1,2,3,4-tetrahydro-quinoline]
The inhibition at 0.5 µM of the first is lower: 53.1% for the first, 87.4% for the second.

First: Brc1ccc(C2CC(n3ccnc3)c3ccccc3N2)cc1 (stereo not shown) [Compound 6e, 2-(4-Bromophenyl)-4-imidazol-1-yl-1,2,3,4-tetrahydro-quinoline]
Second: Fc1ccc(C2CC(n3ccnc3)c3ccccc3N2)cc1 (stereo not shown) [Compound 6g, 2-(4-Fluorophenyl)-4-imidazol-1-yl-1,2,3,4-tetrahydro-quinoline]
The inhibition at 0.5 µM of the first is higher: 89.7% for the first, 80.5% for the second.

Compared with `N#Cc1ccc(C2CC(n3ccnc3)c3ccccc3N2)cc1` (stereo not shown) [Compound 6f, 4-(4-Imidazol-1-yl-1,2,3,4-tetrahydro-quinolin-2-yl)-benzonitrile], `N#Cc1ccc(C2CC(n3cncn3)c3ccccc3N2)cc1` (stereo not shown) [Compound 6m, 4-(4-[1,2,4]Triazol-1-yl-1,2,3,4-tetrahydro-quinolin-2-yl)-benzonitrile] is lower in inhibition at 0.5 µM: 84.3% for the first, 36.1% for the second.

Going from `c1ccc(C2CC(n3cncn3)c3ccccc3N2)cc1` (stereo not shown) [Compound 6h, 2-Phenyl-4-[1,2,4]triazol-1-yl-1,2,3,4-tetrahydro-quinoline] to `Cc1ccc(C2CC(n3cncn3)c3ccccc3N2)cc1` (stereo not shown) [Compound 6i, 2-(p-Tolyl)-4-[1,2,4]triazol-1-yl-1,2,3,4-tetrahydro-quinoline], the inhibition at 0.5 µM rises from 11.2% to 13.6%.

Going from `COc1ccc(C2CC(n3cncn3)c3ccccc3N2)cc1` (stereo not shown) [Compound 6j, 2-(4-Methoxyphenyl)-4-[1,2,4]triazol-1-yl-1,2,3,4-tetrahydro-quinoline] to `Clc1ccc(C2CC(n3cncn3)c3ccccc3N2)cc1` (stereo not shown) [Compound 6k, 2-(4-Chlorophenyl)-4-[1,2,4]triazol-1-yl-1,2,3,4-tetrahydro-quinoline], the inhibition at 0.5 µM rises from 12.8% to 41.9%.

Going from `Brc1ccc(C2CC(n3cncn3)c3ccccc3N2)cc1` (stereo not shown) [Compound 6l, 2-(4-Bromophenyl)-4-[1,2,4]triazol-1-yl-1,2,3,4-tetrahydro-quinoline] to `Fc1ccc(C2CC(n3cncn3)c3ccccc3N2)cc1` (stereo not shown) [Compound 6n, 2-(4-Fluorophenyl)-4-[1,2,4]triazol-1-yl-1,2,3,4-tetrahydro-quinoline], the inhibition at 0.5 µM falls from 43.9% to 19.5%.

Compared with `O=c1c(Cc2ccncc2)c(-c2ccccc2)[nH]c2ccccc12` [Compound 10a, 2-Phenyl-3-((pyridin-4-yl)methyl)quinolin-4(1H)-one], `Cc1ccc(-c2[nH]c3ccccc3c(=O)c2Cc2ccncc2)cc1` [Compound 10b, 2-(p-Tolyl)-3-((pyridin-4-yl)methyl)quinolin-4(1H)-one] is lower in inhibition at 0.5 µM: 7.2% for the first, 3.1% for the second.

Going from `COc1ccc(-c2[nH]c3ccccc3c(=O)c2Cc2ccncc2)cc1` [Compound 10c, 2-(4-Methoxyphenyl)-3-((pyridin-4-yl)methyl)quinolin-4(1H)-one] to `O=c1c(Cc2ccncc2)c(-c2ccc(Cl)cc2)[nH]c2ccccc12` [Compound 10d, 2-(4-Chlorophenyl)-3-((pyridin-4-yl)methyl)quinolin-4(1H)-one], the inhibition at 0.5 µM rises from 0.7% to 13.7%.

Compared with `O=c1c(Cc2ccncc2)c(-c2ccc(Br)cc2)[nH]c2ccccc12` [Compound 10e, 2-(4-Bromophenyl)-3-((pyridin-4-yl)methyl)quinolin-4(1H)-one], `O=c1c(Cc2ccncc2)c(-c2ccc(F)cc2)[nH]c2ccccc12` [Compound 10g, 2-(4-Fluorophenyl)-3-((pyridin-4-yl)methyl)quinolin-4(1H)-one] is higher in inhibition at 0.5 µM: 8.2% for the first, 11.8% for the second.

Going from `N#Cc1ccc(-c2[nH]c3ccccc3c(=O)c2Cc2ccncc2)cc1` [Compound 10f] to `O=c1c(Cc2ccncc2)c(-c2ccccc2)[nH]c2c(Br)cc(Br)cc12` [Compound 10h, 6,8-Dibromo-2-phenyl-3-((pyridin-4-yl)methyl)quinolin-4(1H)-one], the inhibition at 0.5 µM rises from 1.8% to 27.3%.

First: Cc1ccc(-c2[nH]c3c(Br)cc(Br)cc3c(=O)c2Cc2ccncc2)cc1 [Compound 10i, 6,8-Dibromo-2-(p-tolyl)-3-((pyridin-4-yl)methyl)quinolin-4(1H)-one]
Second: O=c1c(Cc2ccncc2)c(-c2ccc(Cl)cc2)[nH]c2c(Br)cc(Br)cc12 [Compound 10k, 6,8-Dibromo-2-(4-Chlorophenyl)-3-((pyridin-4-yl)methyl)quinolin-4(1H)-one]
The inhibition at 0.5 µM of the first is lower: 22.3% for the first, 55.7% for the second.

`COc1ccc(-c2[nH]c3c(Br)cc(Br)cc3c(=O)c2Cc2ccncc2)cc1` [Compound 10j, 6,8-Dibromo-2-(4-Methoxyphenyl)-3-((pyridin-4-yl)methyl)quinolin-4(1H)-one] showed an inhibition at 0.5 µM of 40.5%.

target: T1, aromatase; test: not given; details: Aminoglutethimide = 1; cited from earlier work

Going from `CC(C)(C#N)c1cc(Cn2cncn2)cc(C(C)(C)C#N)c1` [Anasatrozole] to `N#Cc1ccc(C(c2ccc(C#N)cc2)n2cncn2)cc1` [Letrozole], the “RP, breast cancer homogenates” value rises from 450 to 1800.
